Where “and” joins values, the source holds several entries; their conditions need not be identical. Identical values can stand only once. Non-standard residues stand in square brackets, D forms with d. Residues, ends and D or L forms follow the SMILES beside them. 1Nal = N[C@@H](Cc1cccc2ccccc12)C(=O)O; αMeK = C[C@](N)(CCCCN)C(=O)O; Nle = CCCC[C@H](N)C(=O)O; Aib = CC(C)(N)C(=O)O
Target: T1, RXFP1 (Homo sapiens, UniProt Q9HBX9)
T1 sequence (Q9HBX9 1-757): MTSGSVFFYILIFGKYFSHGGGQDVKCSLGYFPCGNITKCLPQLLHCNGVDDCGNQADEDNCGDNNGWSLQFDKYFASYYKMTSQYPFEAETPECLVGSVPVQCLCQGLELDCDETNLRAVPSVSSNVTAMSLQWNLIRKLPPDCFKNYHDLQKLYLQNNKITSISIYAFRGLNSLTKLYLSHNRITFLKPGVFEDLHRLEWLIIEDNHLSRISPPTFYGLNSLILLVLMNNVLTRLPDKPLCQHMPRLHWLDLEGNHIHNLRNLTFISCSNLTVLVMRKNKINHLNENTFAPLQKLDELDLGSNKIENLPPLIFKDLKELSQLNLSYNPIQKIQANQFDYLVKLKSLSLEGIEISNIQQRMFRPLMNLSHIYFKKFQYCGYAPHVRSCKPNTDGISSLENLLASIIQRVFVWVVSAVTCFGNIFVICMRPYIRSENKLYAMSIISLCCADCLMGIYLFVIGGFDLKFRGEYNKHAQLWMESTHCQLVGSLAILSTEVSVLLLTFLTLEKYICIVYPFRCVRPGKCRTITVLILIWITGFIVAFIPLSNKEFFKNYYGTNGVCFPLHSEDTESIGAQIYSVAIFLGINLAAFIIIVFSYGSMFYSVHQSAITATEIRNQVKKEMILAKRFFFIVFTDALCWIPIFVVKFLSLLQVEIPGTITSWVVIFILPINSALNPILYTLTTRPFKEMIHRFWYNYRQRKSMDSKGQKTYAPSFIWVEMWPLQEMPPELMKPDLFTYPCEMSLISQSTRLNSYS
Assay: OVCAR5 cAMP assay (RXFP1 agonist activity, HTRF)
Conditions: for Emax: OVCAR-5, read-out: cAMP assay in OVCAR 5 cells Emax, maximal intracellular cAMP relative to H2-relaxin in the same test occasion; for EC50: cAMP assay in OVCAR 5 cells EC50 (nM), OVCAR5 cells expressing endogenous RXFP1, cAMP by HTRF, 30 min at 37° C., 1 mM IBMX

Row | SMILES | Emax | EC50
1 | CC[C@H](C)[C@H](NC(=O)[C@H](CCC(N)=O)NC(=O)[C@H](C)NC(=O)[C@H](CCCNC(=N)N)NC(=O)[C@@H](NC(=O)[C@H](CCCCN)NC(=O)[C@H](CCC(=O)O)NC(=O)[C@H](CCCNC(=N)N)NC(=O)CNC(=O)[C@H](CCC(=O)O)NC(=O)[C@H](CC(C)C)NC(C)=O)C(C)C)C(=O)NC(C)(C)C(=O)NC(C)(C)C(=O)N[C@@H](CCC(=O)O)C(=O)NCC(=O)N[C@@H](CCSC)C(=O)N[C@@H](CO)C(=O)N[C@@H](CCCCN)C(=O)N[C@@H](Cc1c[nH]c2ccccc12)C(=O)N[C@@H](CO)C(=O)NC(C)(C)C(=O)N[C@@H](CCCNC(=N)N)C(=O)N[C@@H](CCCCN)C(N)=O [compound 18] (Ac-LEGREKVRAQI[Aib][Aib]EGMSKWS[Aib]RK-NH2) | 104% | 
2 | CCCC[C@H](NC(=O)CNC(=O)[C@H](CCC(=O)O)NC(=O)C(C)(C)NC(=O)C(C)(C)NC(=O)[C@@H](NC(=O)C(C)(C)NC(=O)[C@H](C)NC(=O)[C@H](CCCNC(=N)N)NC(=O)[C@@H](NC(=O)[C@H](CCCCN)NC(=O)[C@H](CCC(=O)O)NC(=O)[C@H](CCCNC(=N)N)NC(=O)CNC(=O)[C@H](CCC(=O)O)NC(=O)[C@H](CC(C)C)NC(C)=O)C(C)C)[C@@H](C)CC)C(=O)N[C@@H](CO)C(=O)N[C@H](C(=O)N[C@@H](Cc1c[nH]c2ccccc12)C(=O)N[C@@H](CO)C(=O)N[C@@H](CCCCN)C(=O)N[C@@H](CCCNC(=N)N)C(=O)N[C@@H](CCCCN)C(=O)N[C@@H](CCCCN)C(N)=O)[C@@H](C)O [compound 19] (Ac-LEGREKVRA[Aib]I[Aib][Aib]EG[Nle]STWSKRKK-NH2) | 97% | 
3 | CCCC[C@H](NC(=O)CNC(=O)[C@H](CCC(=O)O)NC(=O)C(C)(C)NC(=O)C(C)(C)NC(=O)[C@@H](NC(=O)C(C)(C)NC(=O)[C@H](C)NC(=O)[C@H](CCCNC(=N)N)NC(=O)[C@@H](NC(=O)[C@H](CCCCN)NC(=O)[C@H](CCC(=O)O)NC(=O)[C@H](CCCNC(=N)N)NC(=O)CNC(=O)[C@H](CCC(=O)O)NC(=O)[C@H](CC(C)C)NC(C)=O)C(C)C)[C@@H](C)CC)C(=O)N[C@@H](CO)C(=O)N[C@H](C(=O)N[C@@H](Cc1c[nH]c2ccccc12)C(=O)N[C@@H](CO)C(=O)N[C@@](C)(CCCCN)C(=O)N[C@@H](CCCNC(=N)N)C(=O)N[C@@H](CCCCN)C(=O)N[C@@H](CCCCN)C(N)=O)[C@@H](C)O [compound 20] (Ac-LEGREKVRA[Aib]I[Aib][Aib]EG[Nle]STWS[αMeK]RKK-NH2) | 97% | ≤ 10 nM and ≤ 5 nM and 1.8 nM
4 | CCCC[C@H](NC(=O)CNC(=O)[C@H](CCC(=O)O)NC(=O)C(C)(C)NC(=O)C(C)(C)NC(=O)[C@@H](NC(=O)[C@H](CCC(N)=O)NC(=O)[C@H](C)NC(=O)[C@H](CCCNC(=N)N)NC(=O)[C@@H](NC(=O)[C@H](CCCCN)NC(=O)[C@H](CCC(=O)O)NC(=O)[C@H](CCCNC(=N)N)NC(=O)CNC(=O)[C@H](CCC(=O)O)NC(=O)[C@H](CC(C)C)NC(C)=O)C(C)C)[C@@H](C)CC)C(=O)N[C@@H](CO)C(=O)N[C@H](C(=O)N[C@@H](Cc1c[nH]c2ccccc12)C(=O)N[C@@H](CO)C(=O)NC(C)(C)C(=O)N[C@@H](CCCNC(=N)N)C(=O)N[C@@H](CCCCN)C(=O)N[C@@H](CCCCNC(C)=O)C(N)=O)[C@@H](C)O [compound 21] (Ac-LEGREKVRAQI[Aib][Aib]EG[Nle]STWS[Aib]RKK(Ac)-NH2) | 96% | 32.8 nM

Other lines, results leading:

Row | Emax | EC50 | SMILES
5 | 104% | 24.4 nM | CCCC[C@H](NC(=O)CNC(=O)[C@H](CCC(=O)O)NC(=O)C(C)(C)NC(=O)C(C)(C)NC(=O)[C@@H](NC(=O)[C@H](CCC(N)=O)NC(=O)[C@H](C)NC(=O)[C@H](CCCNC(=N)N)NC(=O)[C@@H](NC(=O)[C@H](CCCCN)NC(=O)[C@H](CCC(=O)O)NC(=O)[C@H](CCCNC(=N)N)NC(=O)CNC(=O)[C@H](CCC(=O)O)NC(=O)[C@H](CC(C)C)NC(C)=O)C(C)C)[C@@H](C)CC)C(=O)N[C@@H](CO)C(=O)N[C@H](C(=O)N[C@@H](Cc1cccc2ccccc12)C(=O)N[C@@H](CO)C(=O)N[C@@H](CCCCN)C(=O)N[C@@H](CCCNC(=N)N)C(=O)N[C@@H](CCCCN)C(=O)N[C@@H](CCCCN)C(N)=O)[C@@H](C)O [compound 15] (Ac-LEGREKVRAQI[Aib][Aib]EG[Nle]ST[1Nal]SKRKK-NH2)
6 | 101% | ≤ 5 nM | CC[C@H](C)[C@H](NC(=O)[C@H](C)NC(=O)[C@H](C)NC(=O)[C@H](CCCNC(=N)N)NC(=O)[C@@H](NC(=O)[C@H](CCCCN)NC(=O)[C@H](CCC(=O)O)NC(=O)[C@H](CCCNC(=N)N)NC(=O)CNC(=O)[C@H](CCC(=O)O)NC(=O)[C@H](CC(C)C)NC(C)=O)C(C)C)C(=O)NC(C)(C)C(=O)NC(C)(C)C(=O)N[C@@H](CCC(=O)O)C(=O)NCC(=O)N[C@@H](CCSC)C(=O)N[C@@H](CO)C(=O)N[C@H](C(=O)N[C@@H](Cc1c[nH]c2ccccc12)C(=O)N[C@@H](CO)C(=O)N[C@@H](CCCCN)C(=O)N[C@@H](CCCNC(=N)N)C(=O)N[C@@H](CCCCN)C(=O)N[C@@H](CCCCN)C(N)=O)[C@@H](C)O [compound 16] (Ac-LEGREKVRAAI[Aib][Aib]EGMSTWSKRKK-NH2)
7 | 90% |  | CCCC[C@H](NC(=O)CNC(=O)[C@H](CCC(=O)O)NC(=O)C(C)(C)NC(=O)C(C)(C)NC(=O)[C@@H](NC(=O)[C@H](C)NC(=O)[C@H](C)NC(=O)[C@H](CCCNC(=N)N)NC(=O)[C@@H](NC(=O)[C@H](CCCCN)NC(=O)[C@H](CCC(=O)O)NC(=O)[C@H](CCCNC(=N)N)NC(=O)CNC(=O)[C@H](CCC(=O)O)NC(=O)[C@H](CC(C)C)NC(C)=O)C(C)C)[C@@H](C)CC)C(=O)N[C@@H](CO)C(=O)N[C@H](C(=O)N[C@@H](Cc1c[nH]c2ccccc12)C(=O)N[C@@H](CO)C(=O)NC(C)(C)C(=O)N[C@@H](CCCNC(=N)N)C(=O)N[C@@H](CCCCN)C(=O)N[C@@H](CCCCN)C(N)=O)[C@@H](C)O [compound 17] (Ac-LEGREKVRAAI[Aib][Aib]EG[Nle]STWS[Aib]RKK-NH2)
8 | 102% |  | CCCC[C@H](NC(=O)CNC(=O)[C@H](CCC(=O)O)NC(=O)C(C)(C)NC(=O)C(C)(C)NC(=O)[C@@H](NC(=O)[C@H](CCC(N)=O)NC(=O)[C@H](C)NC(=O)[C@H](CCCNC(=N)N)NC(=O)[C@@H](NC(=O)[C@H](CCCCN)NC(=O)[C@H](CCC(=O)O)NC(=O)[C@H](CCCNC(=N)N)NC(=O)CNC(=O)[C@H](CCC(=O)O)NC(=O)[C@H](CC(C)C)NC(C)=O)C(C)C)[C@@H](C)CC)C(=O)N[C@@H](CO)C(=O)N[C@H](C(=O)N[C@@H](Cc1c[nH]c2ccccc12)C(=O)N[C@@H](C)C(=O)NC(C)(C)C(=O)N[C@@H](CCCNC(=N)N)C(=O)N[C@@H](CCCCN)C(=O)N[C@@H](CCCCN)C(N)=O)[C@@H](C)O [compound 22] (Ac-LEGREKVRAQI[Aib][Aib]EG[Nle]STWA[Aib]RKK-NH2)
9 | 95% |  | CCCC[C@H](NC(=O)CNC(=O)[C@H](CCC(=O)O)NC(=O)C(C)(C)NC(=O)C(C)(C)NC(=O)[C@@H](NC(=O)[C@H](CCC(N)=O)NC(=O)[C@H](C)NC(=O)[C@H](CCCNC(=N)N)NC(=O)[C@@H](NC(=O)[C@H](CCCCN)NC(=O)[C@H](CCC(=O)O)NC(=O)[C@H](CCCNC(=N)N)NC(=O)CNC(=O)[C@H](CCC(=O)O)NC(=O)[C@H](CC(C)C)NC(C)=O)C(C)C)[C@@H](C)CC)C(=O)N[C@@H](CO)C(=O)N[C@H](C(=O)N[C@@H](Cc1c[nH]c2ccccc12)C(=O)N[C@H](C(=O)NC(C)(C)C(=O)N[C@@H](CCCNC(=N)N)C(=O)N[C@@H](CCCCN)C(=O)N[C@@H](CCCCN)C(N)=O)[C@@H](C)O)[C@@H](C)O [compound 23] (Ac-LEGREKVRAQI[Aib][Aib]EG[Nle]STWT[Aib]RKK-NH2)
